Laboratory results as given in publication PMC10599993, “The PTPN2/PTPN1 inhibitor ABBV-CLS-484 unleashes potent anti-tumour immunity” (Nature, 2023).
pIC50: −log10 of the molar value.

What was measured:
[1] = molecular target: T1, PTPN2 (Homo sapiens, UniProt P17706); test: X-ray crystal structure (soak); mobility shift enzyme assay IC50; type: biochemical
T1 construct: Met1–Asn314, C-terminal 8× histidine tag (crystal); full-length recombinant (IC50)
Description: X-ray crystal structure (soak); mobility shift enzyme assay IC50 on PTPN2 | The crystal structure of the PTPN2 protein with AC484 confirmed the formation of several crucial interactions in the active site

[2] = molecular target: T2, 5-HT2A (Homo sapiens, UniProt P28223); test: biochemical; parameters: Safety pharmacology off-target panel at Eurofins, radioligand binding with agonist or antagonist radioligand (Supplementary Table 2); details: antagonist radioligand
T2 construct: gene HTR2A
T2 sequence (P28223 whole entry): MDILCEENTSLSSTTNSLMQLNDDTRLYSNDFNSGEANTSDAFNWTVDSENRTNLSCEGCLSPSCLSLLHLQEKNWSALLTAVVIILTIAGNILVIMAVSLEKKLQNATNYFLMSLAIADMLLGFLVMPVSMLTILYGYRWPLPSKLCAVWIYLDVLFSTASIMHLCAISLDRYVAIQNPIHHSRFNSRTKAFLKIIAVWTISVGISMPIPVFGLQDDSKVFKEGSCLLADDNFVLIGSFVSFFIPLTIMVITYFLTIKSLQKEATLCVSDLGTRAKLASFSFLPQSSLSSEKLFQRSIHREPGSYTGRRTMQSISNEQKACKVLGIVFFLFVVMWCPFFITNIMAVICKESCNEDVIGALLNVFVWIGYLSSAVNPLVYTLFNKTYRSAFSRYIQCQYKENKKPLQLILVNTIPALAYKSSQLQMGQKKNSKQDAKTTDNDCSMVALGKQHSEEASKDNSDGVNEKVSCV
Method: (§1) Wide-range phosphatase, kinase and preclinical safety pharmacology off-target activity screens were conducted at Eurofins (Extended Data Table 5 and Supplementary Tables 1 and 2). A small phosphatase panel was developed at AbbVie to assess IC50 values on select phosphatases. The following enzymes used in the phosphatase selectivity panel were purchased from Eurofins: PTPN1 (PTP1B; 14–621), PTPN2 (TC-PTP; 14–646), PTPN9 (14–592), SHP1 (14–591) and SHP2 (14–622). The catalytic activity of the phosphatase was monitored using the small-molecule substrate DiFMUP (ThermoFisher) in a fluorescence assay format. In brief, the phosphatase reactions were performed at room temperature in the following assay buffer: 50 mM HEPES, pH 7.2, 100 mM NaCl, 1 mM EDTA, 0.005% Tween-20 and 5 mM TCEP. Each phosphatase was incubated with increasing concentrations of AC484 for 5 min, after which the substrate DiFMUP was added and incubated at 25 °C for 30 min. The final concentration of the enzyme and substrate was maintained at 0.5 nM and 5 μM, respectively, in all the assays. The reaction was then quenched by the addition of a 100 μM solution of bpV(Phen) (Enzo Life Sciences). The fluorescence signal was monitored using an Envision microplate reader (Perkin-Elmer) using excitation and emission wavelengths of 340 nm and 450 nm, respectively. The dose–response curves for the inhibitors were analysed using normalized IC50 regression curve fitting with control-based normalization. Supplementary file 41586_2023_6575_MOESM4_ESM.xlsx: Supplementary Table 2 AC484 receptor selectivity screen.

[3] = molecular target: T3, 5-HT7 (Homo sapiens, UniProt P34969); test: biochemical; parameters: Safety pharmacology off-target panel at Eurofins, radioligand binding with agonist or antagonist radioligand (Supplementary Table 2); details: agonist radioligand
T3 construct: gene HTR7
T3 sequence (P34969 whole entry): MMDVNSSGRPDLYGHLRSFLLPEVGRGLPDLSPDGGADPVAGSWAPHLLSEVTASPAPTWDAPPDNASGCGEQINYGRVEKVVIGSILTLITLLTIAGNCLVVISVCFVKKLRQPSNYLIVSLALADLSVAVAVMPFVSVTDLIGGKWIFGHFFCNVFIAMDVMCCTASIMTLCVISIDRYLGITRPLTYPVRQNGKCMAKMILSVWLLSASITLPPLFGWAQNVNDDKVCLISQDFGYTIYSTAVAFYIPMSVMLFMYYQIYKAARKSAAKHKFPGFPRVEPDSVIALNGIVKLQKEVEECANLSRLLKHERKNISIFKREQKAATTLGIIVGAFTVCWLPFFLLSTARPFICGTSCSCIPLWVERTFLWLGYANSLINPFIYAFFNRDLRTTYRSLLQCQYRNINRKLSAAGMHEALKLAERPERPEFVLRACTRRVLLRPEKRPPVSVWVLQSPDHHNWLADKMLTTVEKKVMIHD
Method: as §1

[4] = molecular target: T4, A1 (h) (Homo sapiens, UniProt P30542); test: biochemical; parameters: Safety pharmacology off-target panel at Eurofins, radioligand binding with agonist or antagonist radioligand (Supplementary Table 2); details: antagonist radioligand
T4 construct: gene ADORA1
Method: as §1

[5] = molecular target: AR (Homo sapiens, UniProt P10275); test: biochemical; parameters: Safety pharmacology off-target panel at Eurofins, radioligand binding with agonist or antagonist radioligand (Supplementary Table 2); details: agonist radioligand
Method: as §1

[6] = molecular target: T5, CCK1 (CCKA) (Homo sapiens, UniProt P32238); test: biochemical; parameters: Safety pharmacology off-target panel at Eurofins, radioligand binding with agonist or antagonist radioligand (Supplementary Table 2); details: agonist radioligand
T5 construct: gene CCKAR
T5 sequence (P32238 whole entry): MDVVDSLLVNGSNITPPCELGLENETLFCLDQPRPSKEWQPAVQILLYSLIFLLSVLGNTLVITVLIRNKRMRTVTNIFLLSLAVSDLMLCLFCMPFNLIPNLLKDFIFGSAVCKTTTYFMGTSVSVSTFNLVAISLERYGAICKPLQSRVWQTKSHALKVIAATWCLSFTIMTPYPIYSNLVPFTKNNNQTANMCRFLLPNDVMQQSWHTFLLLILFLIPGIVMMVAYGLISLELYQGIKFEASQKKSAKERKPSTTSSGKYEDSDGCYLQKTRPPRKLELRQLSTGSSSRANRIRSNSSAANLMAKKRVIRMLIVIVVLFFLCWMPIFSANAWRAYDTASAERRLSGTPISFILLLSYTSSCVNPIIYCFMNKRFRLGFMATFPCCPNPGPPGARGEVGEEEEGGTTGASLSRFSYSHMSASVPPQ
Method: as §1

[7] = molecular target: T6, D2S (Homo sapiens, UniProt P14416); test: biochemical; parameters: Safety pharmacology off-target panel at Eurofins, radioligand binding with agonist or antagonist radioligand (Supplementary Table 2); details: antagonist radioligand
T6 construct: gene DRD2; D2S short isoform
Method: as §1

[8] = molecular target: T7, EP2 (Homo sapiens, UniProt P43116); test: biochemical; parameters: Safety pharmacology off-target panel at Eurofins, radioligand binding with agonist or antagonist radioligand (Supplementary Table 2); details: agonist radioligand
T7 construct: gene PTGER2
Method: as §1

[9] = molecular target: T8, ETB (Homo sapiens, UniProt P24530); test: biochemical; parameters: Safety pharmacology off-target panel at Eurofins, radioligand binding with agonist or antagonist radioligand (Supplementary Table 2); details: agonist radioligand
T8 construct: gene EDNRB
T8 sequence (P24530 whole entry): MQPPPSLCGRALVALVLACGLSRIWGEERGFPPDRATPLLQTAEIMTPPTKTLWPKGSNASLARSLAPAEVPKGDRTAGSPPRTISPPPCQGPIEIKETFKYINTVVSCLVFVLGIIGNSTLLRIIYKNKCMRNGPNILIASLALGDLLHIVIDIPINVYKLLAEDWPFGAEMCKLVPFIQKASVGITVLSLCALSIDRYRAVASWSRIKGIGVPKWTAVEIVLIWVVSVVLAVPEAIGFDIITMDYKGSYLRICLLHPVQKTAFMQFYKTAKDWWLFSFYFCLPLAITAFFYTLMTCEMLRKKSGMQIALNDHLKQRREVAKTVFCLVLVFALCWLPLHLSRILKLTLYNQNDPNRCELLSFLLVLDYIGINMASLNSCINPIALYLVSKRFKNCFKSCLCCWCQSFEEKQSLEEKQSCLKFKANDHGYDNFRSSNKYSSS
Method: as §1

[10] = molecular target: T9, GR (Homo sapiens, UniProt P04150); test: biochemical; parameters: Safety pharmacology off-target panel at Eurofins, radioligand binding with agonist or antagonist radioligand (Supplementary Table 2); details: agonist radioligand
T9 construct: gene NR3C1
T9 sequence (P04150 whole entry): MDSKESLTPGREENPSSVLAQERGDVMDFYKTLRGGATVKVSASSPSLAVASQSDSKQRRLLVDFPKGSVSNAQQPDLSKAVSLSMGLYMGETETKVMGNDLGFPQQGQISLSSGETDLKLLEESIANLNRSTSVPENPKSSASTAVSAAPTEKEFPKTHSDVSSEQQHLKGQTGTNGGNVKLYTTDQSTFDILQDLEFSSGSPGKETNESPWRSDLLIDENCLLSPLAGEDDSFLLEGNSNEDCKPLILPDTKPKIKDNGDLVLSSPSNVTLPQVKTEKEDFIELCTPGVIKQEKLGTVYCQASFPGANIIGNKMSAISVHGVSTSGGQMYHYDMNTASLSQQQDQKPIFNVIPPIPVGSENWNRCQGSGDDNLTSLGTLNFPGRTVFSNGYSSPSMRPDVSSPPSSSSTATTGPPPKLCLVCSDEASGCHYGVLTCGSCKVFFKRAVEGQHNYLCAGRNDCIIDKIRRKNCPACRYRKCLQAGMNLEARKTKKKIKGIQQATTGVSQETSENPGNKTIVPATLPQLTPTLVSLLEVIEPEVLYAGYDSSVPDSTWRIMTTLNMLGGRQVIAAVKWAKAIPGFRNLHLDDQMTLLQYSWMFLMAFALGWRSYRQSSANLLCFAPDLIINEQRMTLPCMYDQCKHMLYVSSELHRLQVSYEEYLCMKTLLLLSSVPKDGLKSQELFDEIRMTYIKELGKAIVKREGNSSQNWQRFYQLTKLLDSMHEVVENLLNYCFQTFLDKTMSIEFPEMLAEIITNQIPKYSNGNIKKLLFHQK
Method: as §1

[11] = molecular target: T10, H2 (Homo sapiens, UniProt P25021); test: biochemical; parameters: Safety pharmacology off-target panel at Eurofins, radioligand binding with agonist or antagonist radioligand (Supplementary Table 2); details: antagonist radioligand
T10 construct: gene HRH2
T10 sequence (P25021 whole entry): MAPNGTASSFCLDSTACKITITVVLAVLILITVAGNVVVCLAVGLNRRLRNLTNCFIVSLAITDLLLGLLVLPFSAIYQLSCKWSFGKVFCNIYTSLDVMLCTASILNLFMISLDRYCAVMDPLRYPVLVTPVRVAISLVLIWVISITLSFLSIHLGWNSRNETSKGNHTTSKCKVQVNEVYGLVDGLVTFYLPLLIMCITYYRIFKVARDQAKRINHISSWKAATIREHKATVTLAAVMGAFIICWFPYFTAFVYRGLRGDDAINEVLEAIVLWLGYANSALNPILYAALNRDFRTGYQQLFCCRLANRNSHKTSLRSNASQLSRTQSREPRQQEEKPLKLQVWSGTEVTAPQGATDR
Method: as §1

[12] = molecular target: T11, M4 (Homo sapiens, UniProt P08173); test: biochemical; parameters: Safety pharmacology off-target panel at Eurofins, radioligand binding with agonist or antagonist radioligand (Supplementary Table 2); details: antagonist radioligand
T11 construct: gene CHRM4
Method: as §1

[13] = molecular target: T12, M5 (Homo sapiens, UniProt P08912); test: biochemical; parameters: Safety pharmacology off-target panel at Eurofins, radioligand binding with agonist or antagonist radioligand (Supplementary Table 2); details: antagonist radioligand
T12 construct: gene CHRM5
T12 sequence (P08912 whole entry): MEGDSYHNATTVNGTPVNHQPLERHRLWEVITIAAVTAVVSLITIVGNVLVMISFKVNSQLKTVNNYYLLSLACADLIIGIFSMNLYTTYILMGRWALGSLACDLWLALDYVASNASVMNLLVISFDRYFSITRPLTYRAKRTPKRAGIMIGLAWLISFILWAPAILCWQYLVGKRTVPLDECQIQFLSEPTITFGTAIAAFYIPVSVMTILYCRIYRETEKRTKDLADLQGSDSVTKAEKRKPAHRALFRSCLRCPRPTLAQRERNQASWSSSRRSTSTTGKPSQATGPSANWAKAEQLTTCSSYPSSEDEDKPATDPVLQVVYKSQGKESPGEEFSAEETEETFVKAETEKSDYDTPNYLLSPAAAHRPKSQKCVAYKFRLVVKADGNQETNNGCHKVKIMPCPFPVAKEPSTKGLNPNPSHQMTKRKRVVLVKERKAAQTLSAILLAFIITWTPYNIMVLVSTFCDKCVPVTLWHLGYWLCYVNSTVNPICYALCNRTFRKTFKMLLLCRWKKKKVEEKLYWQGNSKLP
Method: as §1

[14] = molecular target: PPARg (Homo sapiens, UniProt P37231); test: biochemical; parameters: Safety pharmacology off-target panel at Eurofins, radioligand binding with agonist or antagonist radioligand (Supplementary Table 2); details: agonist radioligand
Method: as §1

[15] = molecular target: T13, a1A (h) (Homo sapiens, UniProt P35348); test: biochemical; parameters: Safety pharmacology off-target panel at Eurofins, radioligand binding with agonist or antagonist radioligand (Supplementary Table 2); details: antagonist radioligand
T13 construct: gene ADRA1A
T13 sequence (P35348 whole entry): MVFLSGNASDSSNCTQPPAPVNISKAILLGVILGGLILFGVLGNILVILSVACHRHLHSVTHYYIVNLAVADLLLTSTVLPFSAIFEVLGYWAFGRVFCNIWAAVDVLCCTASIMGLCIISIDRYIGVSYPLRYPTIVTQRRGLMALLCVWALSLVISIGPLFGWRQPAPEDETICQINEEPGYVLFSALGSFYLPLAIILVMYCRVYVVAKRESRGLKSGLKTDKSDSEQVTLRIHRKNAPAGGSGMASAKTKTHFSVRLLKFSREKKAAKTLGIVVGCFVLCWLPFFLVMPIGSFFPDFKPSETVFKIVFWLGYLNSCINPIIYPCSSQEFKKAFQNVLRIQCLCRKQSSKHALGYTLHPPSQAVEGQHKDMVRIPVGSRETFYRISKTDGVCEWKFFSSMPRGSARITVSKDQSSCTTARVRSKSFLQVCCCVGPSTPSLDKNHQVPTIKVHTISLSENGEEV
Method: as §1

[16] = molecular target: T14, a2A (h) (Homo sapiens, UniProt P08913); test: biochemical; parameters: Safety pharmacology off-target panel at Eurofins, radioligand binding with agonist or antagonist radioligand (Supplementary Table 2); details: antagonist radioligand
T14 construct: gene ADRA2A
T14 sequence (P08913 whole entry): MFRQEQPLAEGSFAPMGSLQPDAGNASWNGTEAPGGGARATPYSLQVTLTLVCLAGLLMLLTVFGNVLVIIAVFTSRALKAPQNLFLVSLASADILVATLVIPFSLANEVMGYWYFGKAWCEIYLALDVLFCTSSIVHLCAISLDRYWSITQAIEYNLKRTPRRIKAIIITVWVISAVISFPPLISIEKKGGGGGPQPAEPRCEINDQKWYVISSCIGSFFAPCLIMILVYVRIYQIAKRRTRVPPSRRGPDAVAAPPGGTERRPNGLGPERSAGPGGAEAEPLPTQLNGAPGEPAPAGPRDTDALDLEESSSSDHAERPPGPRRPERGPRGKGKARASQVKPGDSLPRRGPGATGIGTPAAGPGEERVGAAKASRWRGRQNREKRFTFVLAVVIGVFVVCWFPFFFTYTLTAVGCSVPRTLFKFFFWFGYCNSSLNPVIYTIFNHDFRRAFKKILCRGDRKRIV
Method: as §1

[17] = molecular target: T15, b1 (h) (Homo sapiens, UniProt P08588); test: biochemical; parameters: Safety pharmacology off-target panel at Eurofins, radioligand binding with agonist or antagonist radioligand (Supplementary Table 2); details: agonist radioligand
T15 construct: gene ADRB1
T15 sequence (P08588 whole entry): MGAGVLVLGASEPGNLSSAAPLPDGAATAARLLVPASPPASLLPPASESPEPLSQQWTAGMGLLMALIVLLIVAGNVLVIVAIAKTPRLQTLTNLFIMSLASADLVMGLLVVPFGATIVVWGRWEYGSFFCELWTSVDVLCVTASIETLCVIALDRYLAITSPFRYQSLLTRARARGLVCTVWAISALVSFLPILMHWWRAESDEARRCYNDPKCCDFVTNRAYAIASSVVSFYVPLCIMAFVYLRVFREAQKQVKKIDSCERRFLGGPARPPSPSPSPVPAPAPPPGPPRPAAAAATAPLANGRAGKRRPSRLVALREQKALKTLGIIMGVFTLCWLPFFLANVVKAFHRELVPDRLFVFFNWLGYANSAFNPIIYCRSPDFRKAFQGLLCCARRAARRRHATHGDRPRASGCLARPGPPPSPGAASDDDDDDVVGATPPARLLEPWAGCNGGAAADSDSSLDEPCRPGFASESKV
Method: as §1

CC(C)CCN[C@@H]1CCc2cc(O)c(N3CC(=O)NS3(=O)=O)c(F)c2C1 [AC484, ABBV-CLS-484]
> 0.01 mM: AC50 [2] | AC50 [3] | AC50 [4] | AC50 [5] | AC50 [6] | AC50 [7] | AC50 [8] | AC50 [9] | AC50 [10] | AC50 [11] | AC50 [12] | AC50 [13] | AC50 [14] | AC50 [15] | AC50 [16] | AC50 [17]
8.74: pIC50 [1]
